Reference: article PMC2856487 (Journal of natural products, 2009)
pIC50: −log10 of the molar value. In brackets after ≈: the same amount, converted by molar mass.

What was measured:
[1] = tested on: lettuce (Lactuca sativa cv. L. Iceberg); experiment: initial phytotoxicity bioassay, lettuce; format: in vivo; settings: for Phytotoxic activity ranking: visual scale 0 to 5, 0 = no effect, 5 = no growth; for growth inhibition (in words): 1 mg/mL (highest concentration)
[2] = tested on: bentgrass (Agrostis stolonifera); experiment: initial phytotoxicity bioassay, bentgrass; format: in vivo; settings: for Phytotoxic activity ranking: visual scale 0 to 5, 0 = no effect, 5 = no growth; for growth inhibition (in words): 1 mg/mL (highest concentration)
[3] = tested on: duckweed (Lemna pausicostata); experiment: duckweed growth bioassay; format: in vivo; settings: 168 h, read-out: I50, growth of duckweed
[4] = tested on: a number of plant species; settings: cited from earlier work
[5] = tested on: D6 (chloroquin sensitive) strain of P. falciparum; experiment: in vitro antiplasmodial activity, D6 clone; format: cell-based, Plasmodium falciparum; settings: for antiplasmodial activity (in words): D6 strain; for IC50: Plasmodium falciparum, D6, 72 h, read-out: D6-clone IC50
[6] = tested on: W2 (chloroquin resistant) strain of P. falciparum; experiment: in vitro antiplasmodial activity, W2 clone; format: cell-based, Plasmodium falciparum; settings: for antiplasmodial activity (in words): W2 strain; for IC50: Plasmodium falciparum, W2, 72 h, read-out: W2-clone IC50
[7] = cytotoxicity to SK-MEL cells; format: cell-based; settings: human
cytotoxicity to KB cells = format: cell-based; settings: human
[8] = cytotoxicity to BT-549 cells; format: cell-based; settings: human
[9] = cytotoxicity to SK-OV-3 cells; format: cell-based; settings: human
[10] = cytotoxicity to LLC-PK11 cells; format: cell-based; settings: pig
[11] = cytotoxicity to Vero cells; format: cell-based; settings: African green monkey, Vero cells (kidney fibroblast)
wheat coleoptile = settings: cited from earlier work
[12] = KB cells (oral epidermal carcinoma)
[13] = BT-549 cells (breast ductal carcinoma)
[14] = SK-OV-3 cells (ovary carcinoma)
[15] = LLC-PK11 cells (kidney epithelial)

| SMILES | Phytotoxic activity ranking ([1]; 0.001 mg/mL) | Phytotoxic activity ranking ([1]; 0.01 mg/mL) | Phytotoxic activity ranking ([1]; 0.1 mg/mL) | Phytotoxic activity ranking ([1]; 1.0 mg/mL) | Phytotoxic activity ranking ([2]; 0.001 mg/mL) | Phytotoxic activity ranking ([2]; 0.01 mg/mL) | Phytotoxic activity ranking ([2]; 0.1 mg/mL) | Phytotoxic activity ranking ([2]; 1.0 mg/mL) | IC50 [5] | IC50 [6] | other results |
| --- | --- | --- | --- | --- | --- | --- | --- | --- | --- | --- | --- |
| C[C@@]12CCC[C@]3(C)C4=CC(=O)OCC4=C[C@@H](OC1=O)C23 (some centres unmarked) [Compound 11] | 0 | 2 | 5 | 5 | 0 | 3 | 5 | 5 |  |  | pIC50 [3]: 6.02 to 6.41; phytotoxicity (in words) [4]: potent phytotoxin |
| C[C@@]12CC[C@@H](O)[C@]3(C)C(=O)O[C@H](C=C4COC(=O)C=C41)C23 (some centres unmarked) [Compound 8] | 0 | 0 | 2 | 5 | 0 | 0 | 3 | 5 |  |  | antiplasmodial activity (in words) [5]: inactive; antiplasmodial activity (in words) [6]: inactive; IC50 at 48 h [7]: > 10 µg/mL; IC50 at 48 h (cytotoxicity to KB cells): > 10 µg/mL; IC50 at 48 h [8]: > 10 µg/mL; IC50 at 48 h [9]: > 10 µg/mL; IC50 at 48 h [10]: > 10 µg/mL; growth inhibition (in words) [1]: total inhibition of growth; growth inhibition (in words) [2]: total inhibition of growth |
| C[C@]12CC[C@@H](O)[C@]3(C)C(=O)O[C@@H](C13)[C@H]1O[C@]13COC(=O)C=C32 (some centres unmarked) [Compound 3] | 0 | 0 | 4 | 5 | 0 | 0 | 4 | 5 | > 4.76 µg/mL | > 4.76 µg/mL | antiplasmodial activity (in words) [5]: inactive; antiplasmodial activity (in words) [6]: inactive; IC50 at 48 h [7]: > 10 µg/mL; IC50 at 48 h (cytotoxicity to KB cells): > 10 µg/mL; IC50 at 48 h [8]: > 10 µg/mL; IC50 at 48 h [9]: > 10 µg/mL; IC50 at 48 h [10]: > 10 µg/mL; growth inhibition (in words) [1]: total inhibition of growth; growth inhibition (in words) [2]: total inhibition of growth |
| C[C@@]12C[C@@H](O)C[C@]3(C)C4=CC(=O)OC[C@]45O[C@@H]5[C@@H](OC1=O)C23 (some centres unmarked) [Compound 4] | 0 | 3 | 5 | 5 | 0 | 2 | 5 | 5 |  | 0.82 µg/mL (≈ 2.68 µM) |  |
| C=C1C(O)CC2[C@](C)(CCC[C@]2(C)C(=O)O)C1CC(=O)O (some centres unmarked) [Compound 13] | 0 | 0 | 0 | 1 | 0 | 0 | 0 | 0 | > 4.76 µg/mL | > 4.76 µg/mL | antiplasmodial activity (in words) [5]: inactive; antiplasmodial activity (in words) [6]: inactive; IC50 at 48 h [11]: > 4.76 µg/mL; IC50 at 48 h ([7]; SK-MEL cells (malignant melanoma)): > 10 µg/mL; IC50 at 48 h (cytotoxicity to KB cells; [12]): > 10 µg/mL; IC50 at 48 h [8, 13]: > 10 µg/mL; IC50 at 48 h [9, 14]: > 10 µg/mL; IC50 at 48 h [10, 15]: > 10 µg/mL; growth inhibition (in words) [1]: inactive; growth inhibition (in words) [2]: inactive |
| C[C@@]12C[C@@H](O)C[C@]3(C)C4=CC(=O)OCC4=C[C@@H](OC1=O)C23 (some centres unmarked) [Compound 9] |  | 2 | 5 | 5 | 2 | 3 | 5 | 5 | 0.097 µg/mL (≈ 0.334 µM) | 0.084 µg/mL (≈ 0.289 µM) | inhibition of wheat coleoptile elongation (in words) (wheat coleoptile): weak inhibitor |
| CCN(CC)CCCC(C)Nc1ccnc2cc(Cl)ccc12 (centres unmarked) [chloroquine, reference compound] |  |  |  |  |  |  |  |  |  | 0.1 µg/mL (≈ 0.313 µM) |  |
| C[C@]12CCC[C@](C)(C(=O)O)[C@@H]1C=C[C@]1(O)COC(=O)C[C@H]21 [Compound 12, oidiolactone-E] | 0 | 2 | 4 | 5 | 0 | 1 | 4 | 5 |  |  |  |
| C[C@@]12C=CC[C@]3(C)C(=O)O[C@H](C=C4COC(=O)C=C41)C23 (some centres unmarked) [Compound 7] | 0 | 1 | 5 | 5 | 0 |  | 5 | 5 | 0.17 µg/mL (≈ 0.624 µM) |  | pIC50 [3]: 6.02 to 6.41 |
| C[C@]12C=C[C@H](O)[C@]3(C)C(=O)O[C@@H](C13)[C@H]1O[C@]13COC(=O)C=C32 (some centres unmarked) [Compound 1] |  | 5 | 5 | 5 |  | 4 | 5 | 5 |  |  |  |
| C[C@@]12CC[C@@H](O)[C@]3(C)C4=CC(=O)OCC4=C[C@@H](OC1=O)C23 (some centres unmarked) [Compound 10] | 0 | 1 | 5 | 5 | 0 | 1 | 5 | 5 |  |  |  |
| C[C@@]12C=C[C@H](O)[C@]3(C)C(=O)O[C@H](C=C4COC(=O)C=C41)C23 (some centres unmarked) [Compound 6] | 0 | 5 | 5 | 5 | 0 | 4 | 5 | 5 | 0.043 µg/mL (≈ 0.149 µM) |  | pIC50 [3]: 6.02 to 6.41 |
| C[C@@]12CC[C@@H](O)[C@]3(C)C4=CC(=O)OC[C@]45O[C@@H]5[C@@H](OC1=O)C23 (some centres unmarked) [Compound 5] | 1 | 4 | 5 | 5 | 0 | 4 | 5 | 5 |  |  | antiplasmodial activity (in words) [5]: inactive; antiplasmodial activity (in words) [6]: inactive; IC50 at 48 h (cytotoxicity to KB cells; [12]): > 10 µg/mL; IC50 at 48 h [8, 13]: > 10 µg/mL; IC50 at 48 h [9, 14]: > 10 µg/mL; IC50 at 48 h [10, 15]: > 10 µg/mL |
| C[C@]12C=CC[C@]3(C)C(=O)O[C@@H](C13)[C@H]1O[C@]13COC(=O)C=C32 (some centres unmarked) [Compound 2] | 0 | 3 | 5 | 5 | 1 | 4 | 5 | 5 |  |  | IC50 at 48 h (cytotoxicity to KB cells): > 10 µg/mL; IC50 at 48 h [9]: > 10 µg/mL; pIC50 [3]: 6.02 to 6.41 |
